From publication PMC11547513, “Design, Synthesis and Biological Activity Evaluation of β-Carboline Derivatives Containing Nitrogen Heterocycles” (Molecules, 2024)
Like-named read-outs stand apart in the source and are kept apart here.

Legend:
[1] = test system: PC-3 (human prostate cancer cell); test: MTT assay, in vitro cytotoxicity on PC-3; conditions: 10 μM, average of three replicates, "/" means no anticancer activity; for inhibition at 10 µM: Homo sapiens
Source text: (§1) Cells were purchased from the Cell Bank of the Chinese Academy of Sciences (Kunming, China).

[2] = test system: A549 (human lung cancer cell); test: MTT assay, in vitro cytotoxicity on A549; conditions: A549, read-out: Inhibitory Activity/% at 10 μM, A549
Source text: as §1

[3] = test system: K562 (human chronic myeloid leukemia cell); test: MTT assay, in vitro cytotoxicity on K562; conditions: Homo sapiens, K562, read-out: Inhibitory Activity/% at 10 μM, K562
Source text: as §1

[4] = test system: T47D (human breast cancer cell); test: MTT assay, in vitro cytotoxicity on T47D; conditions: read-out: Inhibitory Activity/% at 10 μM, T47D
Source text: as §1

[5] = test system: Hek-293T (human embryonic kidney cells); test: MTT assay, in vitro cytotoxicity on normal Hek-293T; conditions: read-out: Inhibitory Activity/% at 10 μM, Hek-293T
Source text: as §1

[6] = read-out: Inhibitory Activity/% at 10 μM, PC-3, Table 1 (7 series)
[7] = read-out: Inhibitory Activity/% at 10 μM, PC-3, Table 2 (8 series)

SMILES | melting point [°C] | inhibition at 10 µM [1, 6] [%] | inhibition at 10 µM [2] [%] | inhibition at 10 µM [3] [%] | inhibition at 10 µM [4] [%] | inhibition at 10 µM [5] [%] | inhibition at 10 µM [1, 7] [%] | Inhibitory Activity/% at 10 μM, PC-3 ([1]; Table 2 (8 series)) [%]
O=C(CSc1nnc(-c2cc3c(cn2)[nH]c2ccccc23)o1)N1CCN(c2ccc(Cl)c(Cl)c2)CC1 [Compound 7a] | 168.3 to 170.9 | 29.58 ± 0.25 | 0.72 ± 1.63 | 0.85 ± 1.01 | 32.3 ± 3.36 | 18.6 ± 0.71 |  | 
O=C(CSc1nnc(-c2cc3c(cn2)[nH]c2ccccc23)o1)N1CCN(c2ccc(F)cc2)CC1 [Compound 7d] |  | 26.5 ± 5.76 | 11.2 ± 0.69 | 17.8 ± 3.97 | 25.4 ± 4.82 | 36.9 ± 1.74 |  | 
COc1cc(-c2nc(-c3nnc(SCC(=O)N4CCN(c5ccc(F)cc5)CC4)o3)cc3c2[nH]c2ccccc23)cc(OC)c1OC [Compound 8d] | 156.8 to 158.1 |  | 10.1 ± 4.44 | 8.62 ± 5.59 | < 0 | 36.9 ± 2.63 | 17.9 ± 2.8 | 
O=C(CSc1nnc(-c2cc3c(cn2)[nH]c2ccccc23)o1)Nc1ccc(F)cc1 [Compound 7k] | 296.4 to 297.9 | 35.8 ± 4.09 | 10.1 ± 6.19 | 12.2 ± 0.18 | 47.5 ± 1.39 | 30.8 ± 2.59 |  | 
O=C(CSc1nnc(-c2cc3c(cn2)[nH]c2ccccc23)o1)N1CCOc2ccccc21 [Compound 7n] | 232.4 to 232.8 | 36 ± 3.68 | 8.72 ± 2.57 | 35.1 ± 3.12 | 47.8 ± 0.82 | 61.8 ± 1.57 |  | 
COc1cc(-c2nc(-c3nnc(SCC(=O)N4CCN(c5ccc(Cl)c(Cl)c5)CC4)o3)cc3c2[nH]c2ccccc23)cc(OC)c1OC [Compound 8a] |  |  | 7.02 ± 4.02 | 21 ± 1.65 | 7.49 ± 3.25 | 29.4 ± 2.16 | 7.73 ± 1.33 | 
COc1cccc(N2CCN(C(=O)CSc3nnc(-c4cc5c(cn4)[nH]c4ccccc45)o3)CC2)c1 [Compound 7j] |  | 14.7 ± 4.49 | 34 ± 0.87 | 13.6 ± 1.21 | 39.9 ± 3.5 | 13.4 ± 0.68 |  | 
O=C(CSc1nnc(-c2cc3c(cn2)[nH]c2ccccc23)o1)N1CCN(C(c2ccc(F)cc2)c2ccc(F)cc2)CC1 [Compound 7o] |  | 5.36 ± 3.63 | < 0 | 1.26 ± 3.66 | 25 ± 1.43 | 35.3 ± 3.81 |  | 
O=C(CSc1nnc(-c2cc3c(cn2)[nH]c2ccccc23)o1)N1CCN(c2ccc(C(F)(F)F)cn2)CC1 [Compound 7r] | 300.7 to 302.9 | 44 ± 2.62 | 3.03 ± 5.83 | 17.2 ± 2.35 | 38.4 ± 5.85 | 0.74 ± 3.77 |  | 
COc1cc(-c2nc(-c3nnc(SCC(=O)N4CCN(c5ccccc5)CC4)o3)cc3c2[nH]c2ccccc23)cc(OC)c1OC [Compound 8i] |  |  | 18.4 ± 1.8 | 25.5 ± 2.72 | 0.56 ± 3.38 | 25.6 ± 3.44 | 21.3 ± 4.8 | 
COc1cccc(N2CCN(C(=O)CSc3nnc(-c4cc5c([nH]c6ccccc65)c(-c5cc(OC)c(OC)c(OC)c5)n4)o3)CC2)c1 [Compound 8j] |  |  | 0.13 ± 4.62 | 25 ± 3.95 | < 0 | 20.4 ± 1.51 | 15.7 ± 3.93 | 
COc1cc(-c2nc(-c3nnc(SCC(=O)N4CCN(S(C)(=O)=O)CC4)o3)cc3c2[nH]c2ccccc23)cc(OC)c1OC [Compound 8m] |  |  | 2.7 ± 1.78 | 30.2 ± 2.16 | < 0 | 21 ± 2.61 | 46.58 ± 0.35 | 
O=C(CSc1nnc(-c2cc3c(cn2)[nH]c2ccccc23)o1)N1CCN(c2ccc(Br)cc2)CC1 [Compound 7b] | 275.4 to 277.7 | 29.09 ± 0.27 | 13.6 ± 7.88 | 8.98 ± 3.13 | 42.6 ± 1.65 | 33.3 ± 0.8 |  | 
COc1cc(-c2nc(-c3nnc(SCC(=O)N4CCN(c5ccc(Cl)cc5)CC4)o3)cc3c2[nH]c2ccccc23)cc(OC)c1OC [Compound 8e] |  |  | 26.8 ± 2.6 | 54.4 ± 2.32 | < 0 | 23.4 ± 3.77 | 26.9 ± 4.39 | 
COc1cc(-c2nc(-c3nnc(SCC(=O)N4CCN(c5ccc(F)cc5F)CC4)o3)cc3c2[nH]c2ccccc23)cc(OC)c1OC [Compound 8h] | 178.1 to 179.4 |  | 17.9 ± 2.91 | 2.46 ± 1.78 | < 0 | 29.6 ± 3.04 | 12.2 ± 1.13 | 
O=C(CSc1nnc(-c2cc3c(cn2)[nH]c2ccccc23)o1)N1CCN(c2ccc(O)cc2)CC1 [Compound 7c] | 163.9 to 165.8 | 22.7 ± 2.19 | 16.8 ± 2.39 | 18.1 ± 2.63 | 40.2 ± 0.9 | 47.3 ± 4.59 |  | 

SMILES | melting point [°C] | inhibition at 10 µM [1, 6] [%] | inhibition at 10 µM [2] [%] | inhibition at 10 µM [3] [%] | inhibition at 10 µM [4] [%] | inhibition at 10 µM [5] [%] | inhibition at 10 µM [1, 7] [%] | Inhibitory Activity/% at 10 μM, PC-3 ([1]; Table 2 (8 series)) [%]
COc1ccc(N2CCN(C(=O)CSc3nnc(-c4cc5c([nH]c6ccccc65)c(-c5cc(OC)c(OC)c(OC)c5)n4)o3)CC2)cc1 [Compound 8f] | 156.5 to 158.6 |  | 13.2 ± 0.56 | 7.87 ± 5.82 | 6.91 ± 5.13 | 20.2 ± 4.34 | 34.5 ± 0.68 | 
COc1cc(-c2nc(-c3nnc(SCC(=O)N4CCN(C5CCCCC5)CC4)o3)cc3c2[nH]c2ccccc23)cc(OC)c1OC [Compound 8p] |  |  | 8.84 ± 0.36 | 44.6 ± 4.1 | 54.2 ± 4.87 | 28.9 ± 3.22 | 19.1 ± 2.79 | 
O=C(CSc1nnc(-c2cc3c(cn2)[nH]c2ccccc23)o1)Nc1ccc(CN2CCOCC2)cc1 [Compound 7q] |  | 29.5 ± 1.38 | 8.67 ± 0.64 | 17 ± 1.86 | 46.4 ± 2.86 | 32.3 ± 2.21 |  | 
O=C(CSc1nnc(-c2cc3c(cn2)[nH]c2ccccc23)o1)N1CCN(c2ccc(F)cc2F)CC1 [Compound 7h] |  | 10.7 ± 2.68 | 2.16 ± 3.56 | 8.23 ± 4.12 | 46.4 ± 2.12 | 47.5 ± 0.78 |  | 
O=C(CSc1nnc(-c2cc3c(cn2)[nH]c2ccccc23)o1)N1CCN(c2ncccn2)CC1 [Compound 7g] | 212.6 to 213.3 | 14.8 ± 2.23 | < 0 | 0.05 ± 2.99 | 42.5 ± 3.19 | 34.1 ± 6.8 |  | 
COc1ccc(N2CCN(C(=O)CSc3nnc(-c4cc5c(cn4)[nH]c4ccccc45)o3)CC2)cc1 [Compound 7f] |  | 11.5 ± 2.78 | 13.5 ± 6.97 | 21.5 ± 3.02 | 42.4 ± 4.23 | 56.8 ± 2.21 |  | 
O=C(CSc1nnc(-c2cc3c(cn2)[nH]c2ccccc23)o1)N1CCOCC1 [Compound 7l] | 228.3 to 229.6 | 39.6 ± 5.06 | 12.2 ± 6.14 | 9.28 ± 2.51 | 19.3 ± 5.03 | 11.2 ± 7.91 |  | 
O=C(CSc1nnc(-c2cc3c(cn2)[nH]c2ccccc23)o1)N1CCN(c2ccccc2)CC1 [Compound 7i] | 148.9 to 150.6 | 35.6 ± 1.89 | 5.2 ± 7.21 | 23.6 ± 3.59 | 54.2 ± 3.88 | 84.14 ± 0.79 |  | 
O=C(CSc1nnc(-c2cc3c(cn2)[nH]c2ccccc23)o1)N1CCN(C2CCCCC2)CC1 [Compound 7p] | 158.8 to 161.4 | 51.2 ± 3.11 | 17 ± 2.1 | 8.68 ± 6.83 | 50.7 ± 5.79 | 61.5 ± 3.24 |  | 
COc1cc(-c2nc(-c3nnc(SCC(=O)N4CCOc5ccccc54)o3)cc3c2[nH]c2ccccc23)cc(OC)c1OC [Compound 8n] | 225.9 to 226.8 |  | 7.62 ± 3.84 | 38.2 ± 3.73 | 25.6 ± 3.79 | 35.5 ± 1.75 | 32 ± 1.17 | 
COc1cc(-c2nc(-c3nnc(SCC(=O)N4CCN(c5ccc(Br)cc5)CC4)o3)cc3c2[nH]c2ccccc23)cc(OC)c1OC [Compound 8b] | 155.8 to 157.9 |  | 5.03 ± 5.42 | 10.8 ± 2.32 | 10.6 ± 1.16 | 38.4 ± 3.85 | 8.91 ± 5.34 | 
CS(=O)(=O)N1CCN(C(=O)CSc2nnc(-c3cc4c(cn3)[nH]c3ccccc34)o2)CC1 [Compound 7m] | 174.3 to 175.6 | 20 ± 3.22 | 14.7 ± 3.64 | 33 ± 1.83 | 25.2 ± 4.1 | 29.5 ± 3.33 |  | 
O=C(CSc1nnc(-c2cc3c(cn2)[nH]c2ccccc23)o1)N1CCN(c2ccc(Cl)cc2)CC1 [Compound 7e] | 246.4 to 248.3 | 25 ± 4.06 | 18 ± 2.06 | 12.7 ± 4.72 | 47.7 ± 3.36 | 26.4 ± 1.35 |  | 
COc1cc(-c2nc(-c3nnc(SCC(=O)Nc4ccc(F)cc4)o3)cc3c2[nH]c2ccccc23)cc(OC)c1OC [Compound 8k] | 235.8 to 237.4 |  | 33.2 ± 0.45 | 33.5 ± 8.79 | 6.94 ± 3.38 | 29.6 ± 2.33 | > 40 | 44.72 ± 1.82
O=c1[nH]cc(F)c(=O)[nH]1 [5-Fluorouracil, reference compound] |  |  | 40.6 ± 2.04 |  |  |  |  | 
